# Tested on: 5α-reductase
# Assay: 5α-reductase activity of fibroblasts derived from human follicle dermal papillae ([C14]-testosterone metabolism to dihydrotestosterone)
# Format: cell-based
# Method: The study is performed on human cells derived from donor follicle dermal papillae. This model is attractive since dermal papillae have the 5α2 isoform as in prostate tissue. The cells are seeded in 24-well plates and cultured for 24 hours in DMEM culture medium supplemented with L-glutamine (2 mM), penicillin (50 U/ml), streptomycin (50 μg/ml) and fatal calf serum (10%) under standard culture conditions (37° C. and 5% CO2). The culture medium is then replaced by a DMEM analytical medium supplemented with L-glutamine (2 mM), penicillin (50 U/ml), streptomycin (50 μg/ml) and fatal calf serum (1%). This analytical medium may contain or may not contain (control conditions) the products to be tested and a compound used as reference, finasteride (10 μM), for 24 h of pre-incubation. The cells were then treated with an analytical medium containing [C^14]-testosterone and containing or not containing (control conditions) the test or reference products, and the cells were incubated for 24 h under these conditions. After incubation, supernatants were collected for testosterone metabolism analysis. All experiments were carried out three times. The steroid molecules were extracted from the supernatants with a chloroform/methanol mixture. The organic phase was collected and the different molecular species (testosterone metabolites) were separated by thin-layer chromatography using a solvent system containing dichloromethane, ethylacetate and methanol. An autoradiography was performed on the chromatography and the transformed testosterone was estimated by densitometric analysis.
# Thus, the metabolism of testosterone to dihydrotestosterone reflects the 5α-reductase activity and is evaluated by the dihydrotestosterone/testosterone ratio.
"5α-reductase inhibition, result in words",Structure (SMILES),inhibition of 5α-reductase (40 μg/ml),"testosterone metabolism/dihydrotestosterone production (5α-reductase activity), change versus control = 100 (10 μM, n = 3)"
–,CCCCCCCCCCCC(=O)OCC(O)CO (stereo not drawn) [glyceryl laurate],19%,–
strong inhibition,"CC(C)(C)NC(=O)[C@H]1CC[C@H]2[C@@H]3CC[C@H]4NC(=O)C=C[C@]4(C)[C@H]3CC[C@]12C [Finasteride, finasteride]",–,−77%
